Source: US20160279043A1, “COMBINATIONS OF N-ACETYL CYSTEINE DERIVATIVES AND CRANBERRY POLYPHENOLS IN COMPOSITIONS AND METHODS FOR PREVENTING AND TREATING PERIODONTAL DISEASES AND PERI-IMPLATITIS” (DENTALMED PHARM HOLDING LTD., priority 2013, published 2016)
Entries after “also recorded” stand apart in the source; their conditions may differ.

Key:
[1] = test system: Porphyromonas gingivalis; assay: Pre-formed biofilm challenge, MBEC P&G assay, LOG10 reduction; type: cell-based, Porphyromonas gingivalis (ATCC 33277)
Procedure: (§1) Sterile MBEC™ P&G plates coated with Hydroxyapatite were used for biofilm growth. The plates consist of plastic lids with 96 protruding polystyrene pegs that have each been coated with hydroxyapatite and a corresponding 96 well base into which the inoculum is placed. The bacterial inoculum for each plate is 150 μL in each well (Innovotech Inc., Edmonton, Alberta, Canada).
(§2) Using a cryogenic stock (at −70° C.), a first sub-culture of the bacterial organisms listed above was streaked out on an organism specific agar (OSA). The bacterium was incubated at appropriate growth conditions for 24-48 hours and the plate was stored wrapped in parafilm at 4° C. for the aerobic strain (Aggregibcater actynomycetemcomitans) and 21° C. in the anaerobic chamber for anaerobic strain (Porphyromonas gingivalis). From the first sub-culture, a second sub-culture was streaked out on OSA. It was incubated at appropriate growth conditions for 24-48 hours. The second sub-culture was used within 24 hours starting from the time it was first removed from incubation. Using the second sub-culture, an isolated colony was aseptically removed from the OSA plate and inoculated into 100 mL of sterile bacterial liquid growth broth. The latter was incubated at 150 rpm at appropriate growth conditions for 24-24 hour. This yielded a viable bacterial density of approximately 10^9 CFU/mL and was checked by serial dilution and plating. The inoculum was adjusted to an approximate cell density of 10^6 CFU/mL by diluting in organism specific broth (OSB). The diluted organism was vortexed for approximately 10 seconds to achieve uniform mixing of the organism. One sample (100 μL) of the diluted organism was used for an inoculum check by serially diluting and spot plating on OSA in triplicate. It should be noted that for the anaerobic microorganism, growth, sonication, serial dilution, transfer and recovery of the organism was performed under anaerobic conditions (5% H2, 10% CO2, 85% N2).
(§3) Each bacterial over-night culture was diluted 1,000× in its specific OSM. Using a micro pipette, 150 μL of inoculum was added to the appropriate wells of a 96 well plate, except for wells that served as sterility controls (SC). Sterility control wells received sterile OSB. The HA MBEC™ P&G lid was then inserted into the 96-well bottom. It should be noted that the volume of inoculum used in this step has been calibrated such that the biofilm covers a surface area that is immersed, entirely, by the volume of antimicrobials used in the challenge plate set up. The device was placed on the gyrorotary shaker in a humidified incubator and incubated at 110 rpm at the appropriate growth conditions. Porphyromonas gingivalis was incubated for 24 hours, and Aggregibcater actynomycetemcomitans was incubated for 48 hours. A triplicate sample of the inoculum was serially diluted (ten-fold). The latter served as controls used to verify the starting cell number in the inoculum. The serial 10-fold dilutions of the inoculum from 10^−7 to 10^0 were spot plated on an appropriately labeled series of agar plates. The spot plates were incubated for an appropriate period of time and scored for growth.
(§4) The biofilm growth check (GCh) pegs were broken off from the challenge plate with flamed pliers. Each peg was placed into 200 μL of neutralizer in row A of serial dilution plate. The plates were sonicated for 30 minutes. Then serial dilution and spot plating on OSA was performed, which served as a biofilm growth check.
(§5) Biofilms were tested using the specified contact times. Callenge plates were used for testing the killing activity of the tested biocidic compounds on formed biofilm and other plates to test the inhibitory effect of biofilm formation. SC wells served as sterility controls for each experiment. One challenge plate was used per growth condition and challenge time. GC is the growth control. GCh is the biofilm Growth Check. […]

[2] = test system: Aggregibcater actynomycetemcomitans; assay: Biofilm MBEC; type: cell-based, Aggregibcater actynomycetemcomitans (ATCC 43717); details: Compound A alone
Procedure: (§6) MBEC is defined as the minimum concentration of test compound that inhibits growth of the biofilm. The recovery plate prepared according to the description above was incubated at 37° C. for 24 hours and read visually to determine MBEC values. A microtiter plate reader was used to obtain optical density measurements at 630 nm (OD630). Clear wells (OD630<0.1) ware evidence of biofilm eradication.

[3] = test system: Porphyromonas gingivalis; assay: Planktonic minimum bactericidal concentration (MBC); type: cell-based, Porphyromonas gingivalis (ATCC 33277); details: Compound A alone; 24 hours contact
Procedure: (§7) After the specified contact time (24 hours), 20 μL from each well of the challenge plate were removed and placed into the corresponding wells of a fresh 96 well Nunc plate containing 180 μL OSM. The plate was incubated at 37° C. for 24 hours.

[4] = test system: Aggregibcater actynomycetemcomitans; assay: Planktonic MIC; type: cell-based, Aggregibcater actynomycetemcomitans (ATCC 43717); details: Compound A alone; 24 hours
Procedure: (§8) The MIC (minimum inhibitory concentration) for the compound was determined for each organism shed from the biofilm during the challenge incubation. The MIC was defined as the minimum concentration that inhibits growth of the organism.

[5] = test system: Aggregibcater actynomycetemcomitans; assay: Pre-formed biofilm challenge, MBEC P&G assay, LOG10 reduction; type: cell-based, Aggregibcater actynomycetemcomitans (ATCC 43717)
Procedure: as §1, §2, §3, §4, §5

[6] = test system: Aggregibcater actynomycetemcomitans; assay: Growth inhibition, LOG10 reduction; type: cell-based, Aggregibcater actynomycetemcomitans (ATCC 43717)
Procedure: as §2
(§9) Biofilms were tested using the specified contact times. Callenge plates were used for testing the killing activity of the tested biocidic compounds on formed biofilm and other plates to test the inhibitory effect of biofilm formation. SC wells served as sterility controls for each experiment. One challenge plate was used per growth condition and challenge time. GC is the growth control. GCh is the biofilm Growth Check.
(§10) Using a sterile 96-well microtitre plate the following was done aseptically to set up the above challenge plates. 200 μL of sterile OSM was added to wells that served as the device sterility control for the media and for biofilm growth checks. 200 μL of sterile neutralizer was added to wells that served as the neutralizer toxicity control. 100 μL of the neutralizer and 100 μL of each of the tested compounds or combinations were added to wells serving as neutralizer affectivity control. 200 μL of biocide stock solution was added to wells which served as the biocide diluent sterility control. Serial dilutions of the tested compounds and combinations in the diluents (OSM) were performed. Each freshly prepared challenge plate was aseptically covered and left to stand at room temperature for 30 minutes to equilibrate prior to use.
(§11) Following sonication of all plates, 100 μL was placed from each well of the MBEC™ plate into the first 12 empty wells of the first row of a 96 well-micro titer plate. 180 μL of sterile 0.9% saline were placed in the remaining rows. A Serial dilution (10^0-10^−7) was performed by moving 20 μL down each of the 8 rows. 10 μL were removed from each well and spot plated on prepared OSA plates. Plates were incubated at 37±1° C. and counted after approximately 24-48 hours of incubation. The data obtained was evaluated as Log 10 CFU/peg. 100 μL of the sterile neutralizer were placed in each well of the recovery plate to top up the volume back to 200 μL.
(§12) LOG10 Reduction=Mean LOG10 Growth Control−Mean LOG10 Test.

[7] = test system: Porphyromonas gingivalis; assay: Growth inhibition, LOG10 reduction; type: cell-based, Porphyromonas gingivalis (ATCC 33277)
Procedure: as §2, §9, §10, §11, §12

[8] = test system: Porphyromonas gingivalis; assay: Planktonic MIC; type: cell-based, Porphyromonas gingivalis (ATCC 33277); details: Compound A alone; 24 hours
Procedure: as §8

[9] = test system: Aggregibcater actynomycetemcomitans; assay: Planktonic minimum bactericidal concentration (MBC); type: cell-based, Aggregibcater actynomycetemcomitans (ATCC 43717); details: Compound A alone; 24 hours contact
Procedure: as §7

[10] = test system: Porphyromonas gingivalis; assay: Biofilm MBEC; type: cell-based, Porphyromonas gingivalis (ATCC 33277); details: Compound A alone
Procedure: as §6

[11] = Compound A, all tested concentrations

For `CC(=O)N[C@@H](CS)C(=O)O` [Compound A, N-acetyl cysteine], the “Log Reduction, Biofilm, P. gingivalis” value ([1]; Compound A 0.15%) was 0.11 log, the “Log Reduction, Biofilm, P. gingivalis” value ([1]; Compound A 0.31%) was 0.07 log and the “Log Reduction, Biofilm, P. gingivalis” value ([1]; Compound A 0.62%) was −0.07 log. For the same molecule, the “Log Reduction, Biofilm, P. gingivalis” value ([1]; Compound A 1.25%) was −0.18 log, the “Log Reduction, Biofilm, P. gingivalis” value ([1]; Compound A 2.50%) was 0.13 log and the “Log Reduction, Biofilm, P. gingivalis” value ([1]; Compound A 5%) was −0.18 log. The “Log Reduction, Biofilm, P. gingivalis” value ([1]; Compound A 10%) was −0.17 log, the “Log Reduction, Biofilm, P. gingivalis” value ([1]; Compound A 20%) was 0.13 log and the “Reducing preformed biofilm of P. gingivalis (in words)” value [1, 11] was “ineffective; also recorded: No inhibition or biofilm reduction”. The “MBEC Cut-off, A.a.” value [2] was >20%, the “MBC Cut-off, P. gingivalis” value [3] was >20% and the “MIC Cut-off, A.a.” value [4] was 10%. For the same molecule, the “Log Reduction, Biofilm, A.a.” value ([5]; Compound A 0.15%) was 0.51 log, the “Log Reduction, Biofilm, A.a.” value ([5]; Compound A 0.31%) was −0.02 log and the “Log Reduction, Biofilm, A.a.” value ([5]; Compound A 0.62%) was 0.23 log. The “Log Reduction, Biofilm, A.a.” value ([5]; Compound A 1.25%) was 0.36 log, the “Log Reduction, Biofilm, A.a.” value ([5]; Compound A 2.50%) was −0.01 log and the “Log Reduction, Biofilm, A.a.” value ([5]; Compound A 5%) was 0.39 log. For the same molecule, the “Log Reduction, Biofilm, A.a.” value ([5]; Compound A 10%) was 3.02 log, the “Log Reduction, Biofilm, A.a.” value ([5]; Compound A 20%) was 3.25 log and the “Log Reduction, Growth Inhibition, A.a.” value ([6]; Compound A 0.15%) was 0.24 log. For the same molecule, the “Log Reduction, Growth Inhibition, A.a.” value ([6]; Compound A 0.31%) was 0.28 log, the “Log Reduction, Growth Inhibition, A.a.” value ([6]; Compound A 0.62%) was 0.74 log and the “Log Reduction, Growth Inhibition, A.a.” value ([6]; Compound A 1.25%) was 1.04 log. The “Log Reduction, Growth Inhibition, A.a.” value ([6]; Compound A 2.50%) was 1.13 log, the “Log Reduction, Growth Inhibition, A.a.” value ([6]; Compound A 5%) was 2.05 log and the “Log Reduction, Growth Inhibition, A.a.” value ([6]; Compound A 10%) was 6.34 log. The “Log Reduction, Growth Inhibition, A.a.” value ([6]; Compound A 20%) was 6.34 log, the “Inhibiting growth of A.a. (in words)” value ([6]; Compound A, only at 20% and 10% of the stock concentration) was “effective at inhibiting growth” and the “Log Reduction, Growth Inhibition, P. gingivalis” value ([7]; Compound A 0.15%) was −0.89 log. For the same molecule, the “Log Reduction, Growth Inhibition, P. gingivalis” value ([7]; Compound A 0.31%) was −0.05 log, the “Log Reduction, Growth Inhibition, P. gingivalis” value ([7]; Compound A 0.62%) was 0.35 log and the “Log Reduction, Growth Inhibition, P. gingivalis” value ([7]; Compound A 1.25%) was 0.44 log. For the same molecule, the “Log Reduction, Growth Inhibition, P. gingivalis” value ([7]; Compound A 2.50%) was 0.11 log, the “Log Reduction, Growth Inhibition, P. gingivalis” value ([7]; Compound A 5%) was −0.19 log and the “Log Reduction, Growth Inhibition, P. gingivalis” value ([7]; Compound A 10%) was −0.71 log. For the same molecule, the “Log Reduction, Growth Inhibition, P. gingivalis” value ([7]; Compound A 20%) was 0.36 log, the “Inhibiting growth of P. gingivalis (in words)” value [7, 11] was “ineffective; also recorded: No inhibition” and the “MIC Cut-off, P. gingivalis” value [8] was >20%. The “MBC Cut-off, A.a.” value [9] was >20% and the “MBEC Cut-off, P. gingivalis” value [10] was >20%.
